Common to all, as to assay: Kinase profiling screen (radioactive filter-binding assay)
Holding throughout (format): biochemical
Holding throughout (details): 100 μM compound, 20 μM ATP; read-out: Kinase activity, % of activity in the absence of inhibitor

One assay concerns the target T1, PRAK (Homo sapiens, UniProt Q8IW41).
T1 sequence (Q8IW41 1-473): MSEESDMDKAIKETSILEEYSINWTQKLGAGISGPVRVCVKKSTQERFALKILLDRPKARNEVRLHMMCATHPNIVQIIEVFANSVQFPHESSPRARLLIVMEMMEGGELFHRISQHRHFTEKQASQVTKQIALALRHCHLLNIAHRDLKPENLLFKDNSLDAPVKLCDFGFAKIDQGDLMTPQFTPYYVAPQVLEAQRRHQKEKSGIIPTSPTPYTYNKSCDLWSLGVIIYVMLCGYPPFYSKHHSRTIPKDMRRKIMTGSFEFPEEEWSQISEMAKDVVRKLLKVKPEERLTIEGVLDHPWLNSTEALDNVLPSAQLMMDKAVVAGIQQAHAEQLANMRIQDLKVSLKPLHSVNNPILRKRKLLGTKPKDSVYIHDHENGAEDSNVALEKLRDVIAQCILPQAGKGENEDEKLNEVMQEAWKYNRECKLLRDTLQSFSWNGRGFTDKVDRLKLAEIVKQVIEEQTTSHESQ
The method in brief: (§1)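 Residual kinase activity is read in duplicate wells containing 100 μM final test compound (CoA, dpCoA or ADP). Recombinant kinases use model substrates at ATP levels optimal for each enzyme, across a 117-kinase screen.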

The next assay addresses T2, NUAK1 (Homo sapiens, UniProt O60285).
T2 sequence (O60285 1-661): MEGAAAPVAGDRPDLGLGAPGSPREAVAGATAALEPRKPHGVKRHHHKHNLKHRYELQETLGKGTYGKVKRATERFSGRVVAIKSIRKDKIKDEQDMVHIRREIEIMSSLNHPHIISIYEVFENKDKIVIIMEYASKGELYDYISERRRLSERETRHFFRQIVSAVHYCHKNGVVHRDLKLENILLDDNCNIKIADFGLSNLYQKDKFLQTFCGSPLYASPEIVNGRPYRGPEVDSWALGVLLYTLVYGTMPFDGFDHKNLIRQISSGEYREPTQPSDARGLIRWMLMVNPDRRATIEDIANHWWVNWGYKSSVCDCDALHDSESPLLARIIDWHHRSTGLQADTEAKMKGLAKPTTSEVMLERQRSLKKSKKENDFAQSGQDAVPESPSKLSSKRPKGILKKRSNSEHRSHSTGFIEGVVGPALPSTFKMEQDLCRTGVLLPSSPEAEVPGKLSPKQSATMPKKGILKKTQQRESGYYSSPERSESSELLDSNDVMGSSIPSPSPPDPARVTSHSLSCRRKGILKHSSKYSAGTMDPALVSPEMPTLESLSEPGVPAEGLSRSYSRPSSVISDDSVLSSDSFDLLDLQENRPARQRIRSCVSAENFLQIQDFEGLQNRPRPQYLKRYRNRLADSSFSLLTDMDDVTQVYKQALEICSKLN
In outline: as §1

The target in another assay is T3, EPH-B2 (Homo sapiens, UniProt P29323).
T3 sequence (P29323 19-1055): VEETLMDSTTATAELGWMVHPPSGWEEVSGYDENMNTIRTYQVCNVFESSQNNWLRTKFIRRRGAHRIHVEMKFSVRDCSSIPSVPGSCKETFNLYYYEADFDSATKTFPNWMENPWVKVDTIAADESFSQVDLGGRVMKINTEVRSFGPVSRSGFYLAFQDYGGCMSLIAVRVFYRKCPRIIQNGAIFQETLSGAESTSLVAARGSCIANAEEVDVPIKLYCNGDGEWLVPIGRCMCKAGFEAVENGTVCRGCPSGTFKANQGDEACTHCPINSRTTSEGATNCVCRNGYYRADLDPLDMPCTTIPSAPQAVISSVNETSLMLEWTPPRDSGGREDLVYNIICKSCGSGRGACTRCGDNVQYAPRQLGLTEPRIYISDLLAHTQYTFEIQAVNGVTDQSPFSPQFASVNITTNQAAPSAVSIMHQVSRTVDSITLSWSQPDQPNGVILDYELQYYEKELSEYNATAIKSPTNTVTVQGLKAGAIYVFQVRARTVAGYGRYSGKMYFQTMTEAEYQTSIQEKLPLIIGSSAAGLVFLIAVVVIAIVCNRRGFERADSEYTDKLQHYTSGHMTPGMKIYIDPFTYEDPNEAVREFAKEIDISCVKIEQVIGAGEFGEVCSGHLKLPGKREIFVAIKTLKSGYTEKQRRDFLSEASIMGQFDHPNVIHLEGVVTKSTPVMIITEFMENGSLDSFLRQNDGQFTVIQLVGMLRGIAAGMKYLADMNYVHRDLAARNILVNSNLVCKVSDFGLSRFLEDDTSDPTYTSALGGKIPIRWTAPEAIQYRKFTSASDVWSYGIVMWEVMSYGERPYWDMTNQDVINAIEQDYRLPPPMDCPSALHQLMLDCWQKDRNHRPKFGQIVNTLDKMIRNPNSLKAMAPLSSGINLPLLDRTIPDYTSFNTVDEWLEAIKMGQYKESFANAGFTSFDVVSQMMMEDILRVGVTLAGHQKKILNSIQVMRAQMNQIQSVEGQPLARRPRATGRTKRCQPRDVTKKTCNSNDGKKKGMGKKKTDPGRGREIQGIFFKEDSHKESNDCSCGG
In outline:
as §1

In the case of `Nc1ncnc2c1ncn2C1OC(COP(=O)(O)OP(=O)(O)O)C(O)C1O` (stereo not drawn) [ADP], the activity at 100 µM on PRAK is 15.2%; on NUAK1, 32.4%; on EPH-B2, 14.3%.
The matching figures for `CC(C)(COP(=O)(O)OP(=O)(O)OC[C@H]1O[C@@H](n2cnc3c(N)ncnc32)[C@H](O)[C@@H]1OP(=O)(O)O)[C@@H](O)C(=O)NCCC(=O)NCCS` [CoA, Coenzyme A]: 99.7%, 98.3% and 117%.
`CC(C)(COP(=O)(O)OP(=O)(O)OCC1OC(n2cnc3c(N)ncnc32)C(O)C1O)C(O)C(=O)NCCC(=O)NCCS` (stereo not drawn) [dpCoA, dephospho-CoA]: the figures for the activity at 100 µM at PRAK, on NUAK1 and at EPH-B2 were 77.7%, 68.3% and 91.1%, respectively.

Values taken from publication PMC6812009, “Covalent Aurora A regulation by the metabolic integrator coenzyme A” (Redox Biology, 2019).
